Source: ChEMBL document CHEMBL4665709, “Rational Avoidance of Protease Cleavage Sites and Symmetrical End-Tagging Significantly Enhances the Stability and Therapeutic Potential of Antimicrobial Peptides” (J Med Chem, 2020)
In brackets after ≈: the same amount, converted by molar mass. Where a SMILES comes first, the peptide text is derived from it.

Legend:
Erythrocyte = test: Hemolytic activity in human RBC assessed as hemolysis; format: ADME, cell-based
[1] = Therapeutic index, ratio of MHC for human RBC to geometric mean of peptide MIC for Salmonella pullorum 7913; format: toxicity; details: human red blood cells (RBC), read-out: TI
[2] = Therapeutic index, ratio of MHC for human RBC to geometric mean of peptide MIC for Escherichia coli UB1005; format: toxicity; details: human red blood cells (RBC), read-out: TI
[3] = Therapeutic index, ratio of MHC for human RBC to geometric mean of peptide MIC for Salmonella choleraesuis 503; format: toxicity; details: human red blood cells (RBC), read-out: TI
Salmonella enterica = test: Antibacterial activity against Salmonella choleraesuis 503 after 18 to 24 hrs by CLSI-based broth microdilution method; format: functional; details: time hrs 18-24
[4] = Therapeutic index, ratio of MHC for human RBC to geometric mean of peptide MIC for Enterococcus faecalis ATCC 29212; format: toxicity; details: human red blood cells (RBC), read-out: TI
[5] = Therapeutic index, ratio of MHC for human RBC to geometric mean of peptide MIC for Salmonella typhimurium 14028; format: toxicity; details: human red blood cells (RBC), read-out: TI
[6] = Therapeutic index, ratio of MHC for human RBC to geometric mean of peptide MIC for Salmonella typhimurium 7731; format: toxicity; details: human red blood cells (RBC), read-out: TI
[7] = Therapeutic index, ratio of MHC for human RBC to geometric mean of peptide MIC for Staphylococcus aureus ATCC 29213; format: toxicity; details: human red blood cells (RBC), read-out: TI
[8] = Cytotoxicity against mouse RAW264.7 cells assessed as cell viability at 128 uM by MTT assay relative to control; format: cell-based; details: read-out: Activity
[9] = Antibacterial activity against Salmonella pullorum 7913 after 18 to 24 hrs by CLSI-based broth microdilution method; format: functional, Salmonella enterica subsp. enterica serovar Pullorum; details: Salmonella enterica, time hrs 18-24
[10] = Therapeutic index, ratio of MHC for human RBC to geometric mean of peptide MIC for Staphylococcus epidermidis ATCC 12228; format: toxicity; details: human red blood cells (RBC), read-out: TI
Enterococcus faecalis = test: Antibacterial activity against Enterococcus faecalis ATCC 29212 after 18 to 24 hrs by CLSI-based broth microdilution method; format: functional; details: time hrs 18-24
[11] = Therapeutic index, ratio of MHC for human RBC to geometric mean of peptide MIC for Escherichia coli ATCC 25922; format: toxicity; details: human red blood cells (RBC), read-out: TI
Streptococcus agalactiae = test: Antibacterial activity against Streptococcus agalactiae H92 after 18 to 24 hrs by CLSI-based broth microdilution method; format: functional; details: time hrs 18-24
Staphylococcus aureus [12] = test: Antibacterial activity against methicillin-resistant Staphylococcus aureus 43300 after 18 to 24 hrs by CLSI-based broth microdilution method; format: functional; details: time hrs 18-24
[13] = Hemolytic activity in human RBC assessed as hemolysis at 1 to 128 uM relative to control; format: ADME, cell-based, Erythrocyte; details: human red blood cells (RBC), dose 1-128 µM, read-out: Activity
Salmonella typhimurium [14] = test: Antibacterial activity against Salmonella typhimurium 7731 after 18 to 24 hrs by CLSI-based broth microdilution method; format: functional, Salmonella enterica subsp. enterica serovar Typhimurium; details: Salmonella enterica, time hrs 18-24
[15] = Therapeutic index, ratio of MHC for human RBC to geometric mean of peptide MIC for Staphylococcus aureus 11011; format: toxicity; details: human red blood cells (RBC), read-out: TI
[16] = Cytotoxicity against HEK-293T cells assessed as cell viability at 128 uM by MTT assay relative to control; format: cell-based; details: human, read-out: Activity
[17] = Therapeutic index, ratio of MHC for human RBC to geometric mean of peptide MIC for methicillin-resistant Staphylococcus aureus 43300; format: toxicity; details: human red blood cells (RBC), read-out: TI
Staphylococcus aureus [18] = test: Antibacterial activity against Staphylococcus aureus 11011 after 18 to 24 hrs by CLSI-based broth microdilution method; format: functional; details: time hrs 18-24
Escherichia coli [19] = test: Antibacterial activity against Escherichia coli UB1005 after 18 to 24 hrs by CLSI-based broth microdilution method; format: functional; details: time hrs 18-24
Staphylococcus aureus [20] = test: Antibacterial activity against Staphylococcus aureus ATCC 29213 after 18 to 24 hrs by CLSI-based broth microdilution method; format: functional; details: time hrs 18-24
Salmonella typhimurium [21] = test: Antibacterial activity against Salmonella typhimurium 14028 after 18 to 24 hrs by CLSI-based broth microdilution method; format: functional, Salmonella enterica subsp. enterica serovar Typhimurium; details: Salmonella enterica, time hrs 18-24
[22] = test system: Staphylococcus epidermidis; test: Antibacterial activity against Staphylococcus epidermidis ATCC 12228 after 18 to 24 hrs by CLSI-based broth microdilution method; format: functional; details: time hrs 18-24
Escherichia coli [23] = test: Antibacterial activity against Escherichia coli ATCC 25922 after 18 to 24 hrs by CLSI-based broth microdilution method; format: functional; details: time hrs 18-24
[24] = Therapeutic index, ratio of MHC for human RBC to geometric mean of peptide MIC for Streptococcus agalactiae H92; format: toxicity; details: human red blood cells (RBC), read-out: TI

SMILES | MHC (Erythrocyte) [µM] | selectivity ratio [1] | selectivity ratio [2] | selectivity ratio [3] | MIC (Salmonella enterica) [µM] | selectivity ratio [4] | selectivity ratio [5] | selectivity ratio [6] | selectivity ratio [7] | viability at 128 µM [8] [%] | MIC [9] [µM] | selectivity ratio [10] | MIC (Enterococcus faecalis) [µM] | selectivity ratio [11] | MIC (Streptococcus agalactiae) [µM] | MIC (Staphylococcus aureus [12]) [µM] | hemolysis at up to 128 µM [13] [%] | MIC (Salmonella typhimurium [14]) [µM] | selectivity ratio [15] | viability at 128 µM [16] [%] | further results
CC[C@H](C)[C@H](N)C(=O)N[C@@H](CS)C(=O)N[C@@H](CCCNC(=N)N)C(=O)N[C@@H](CCCCN)C(=O)N1CCC[C@H]1C(=O)N[C@H](C(=O)N[C@H](C(=O)N[C@@H](CS)C(=O)N[C@@H](CCCNC(=N)N)C(=O)N[C@@H](CCCCN)C(=O)N1CCC[C@H]1C(=O)N[C@H](C(=O)N[C@H](C(=O)N[C@@H](CS)C(=O)N[C@@H](CCCNC(=N)N)C(=O)N[C@@H](CCCCN)C(=O)N1CCC[C@H]1C(=O)N[C@H](C(=O)N[C@H](C(=O)N[C@@H](CS)C(=O)N[C@@H](CCCNC(=N)N)C(=O)N[C@@H](CCCCN)C(=O)N1CCC[C@H]1C(=O)N[C@H](C(=O)N[C@H](C(=O)N[C@@H](CS)C(=O)N[C@@H](CCCNC(=N)N)C(=O)N[C@@H](CCCCN)C(=O)N1CCC[C@H]1C(=O)N[C@H](C(N)=O)[C@@H](C)CC)[C@@H](C)CC)[C@@H](C)CC)[C@@H](C)CC)[C@@H](C)CC)[C@@H](C)CC)[C@@H](C)CC)[C@@H](C)CC)[C@@H](C)CC (H-ICRKPIICRKPIICRKPIICRKPIICRKPI-NH2) | > 128 | 28.5 | 28.5 | 28.5 | 8 (≈ 28.6 µg/mL) | 2 | 28.5 | 28.5 | 2 | > 90 | 8 (≈ 28.6 µg/mL) | 2 | > 64 | 28.5 | > 64 | > 64 | < 5 | 4 (≈ 14.3 µg/mL) | 2 | > 90 | selectivity ratio [17]: 2; MIC (Staphylococcus aureus [18]): > 64 µM; MIC (Escherichia coli [19]): 2 µM (≈ 7.14 µg/mL); MIC (Staphylococcus aureus [20]): > 64 µM; MIC (Salmonella typhimurium [21]): 4 µM (≈ 14.3 µg/mL); MIC [22]: > 64 µM; MIC (Escherichia coli [23]): 4 µM (≈ 14.3 µg/mL); selectivity ratio [24]: 2
CC[C@H](C)[C@H](N)C(=O)N[C@H](C(=O)N[C@@H](CS)C(=O)N[C@@H](CCCNC(=N)N)C(=O)N[C@@H](CCCCN)C(=O)N1CCC[C@H]1C(=O)N[C@H](C(=O)N[C@H](C(=O)N[C@@H](CS)C(=O)N[C@@H](CCCNC(=N)N)C(=O)N[C@@H](CCCCN)C(=O)N1CCC[C@H]1C(=O)N[C@H](C(=O)N[C@H](C(N)=O)[C@@H](C)CC)[C@@H](C)CC)[C@@H](C)CC)[C@@H](C)CC)[C@@H](C)CC (H-IICRKPIICRKPII-NH2) | > 128 | 4 | 4 | 4 | > 64 | 2 | 4 | 4 | 2 | > 90 | > 64 | 2 | > 64 | 4 | > 64 | > 64 | < 5 | 32 (≈ 53.3 µg/mL) | 2 | > 90 | selectivity ratio [17]: 2; MIC (Staphylococcus aureus [18]): > 64 µM; MIC (Escherichia coli [19]): 16 µM (≈ 26.6 µg/mL); MIC (Staphylococcus aureus [20]): > 64 µM; MIC (Salmonella typhimurium [21]): 32 µM (≈ 53.3 µg/mL); MIC [22]: > 64 µM; MIC (Escherichia coli [23]): 16 µM (≈ 26.6 µg/mL); selectivity ratio [24]: 2
CC[C@H](C)[C@H](N)C(=O)N[C@H](C(=O)N[C@@H](CS)C(=O)N[C@@H](CCCNC(=N)N)C(=O)N[C@@H](CCCCN)C(=O)N1CCC[C@H]1C(=O)N[C@H](C(=O)N[C@H](C(=O)N[C@@H](CS)C(=O)N[C@@H](CCCNC(=N)N)C(=O)N[C@@H](CCCCN)C(=O)N1CCC[C@H]1C(=O)N[C@H](C(=O)N[C@H](C(=O)N[C@@H](CS)C(=O)N[C@@H](CCCNC(=N)N)C(=O)N[C@@H](CCCCN)C(=O)N1CCC[C@H]1C(=O)N[C@H](C(=O)N[C@H](C(N)=O)[C@@H](C)CC)[C@@H](C)CC)[C@@H](C)CC)[C@@H](C)CC)[C@@H](C)CC)[C@@H](C)CC)[C@@H](C)CC (H-IICRKPIICRKPIICRKPII-NH2) | > 128 | 14.2 | 14.2 | 14.2 | 16 (≈ 38 µg/mL) | 2 | 14.2 | 14.2 | 2 | > 90 | 32 (≈ 76 µg/mL) | 2 | > 64 | 14.2 | 64 (≈ 152 µg/mL) | 64 (≈ 152 µg/mL) | < 5 | 8 (≈ 19 µg/mL) | 2 | > 90 | selectivity ratio [17]: 2; MIC (Staphylococcus aureus [18]): > 64 µM; MIC (Escherichia coli [19]): 4 µM (≈ 9.5 µg/mL); MIC (Staphylococcus aureus [20]): > 64 µM; MIC (Salmonella typhimurium [21]): 8 µM (≈ 19 µg/mL); MIC [22]: 64 µM (≈ 152 µg/mL); MIC (Escherichia coli [23]): 4 µM (≈ 9.5 µg/mL); selectivity ratio [24]: 2
CC[C@H](C)[C@H](N)C(=O)N[C@H](C(=O)N[C@@H](CS)C(=O)N[C@@H](CCCNC(=N)N)C(=O)N[C@@H](CCCCN)C(=O)N1CCC[C@H]1C(=O)N[C@H](C(=O)N[C@H](C(=O)N[C@@H](CS)C(=O)N[C@@H](CCCNC(=N)N)C(=O)N[C@@H](CCCCN)C(=O)N1CCC[C@H]1C(=O)N[C@H](C(=O)N[C@H](C(=O)N[C@@H](CS)C(=O)N[C@@H](CCCNC(=N)N)C(=O)N[C@@H](CCCCN)C(=O)N1CCC[C@H]1C(=O)N[C@H](C(=O)N[C@H](C(=O)N[C@@H](CS)C(=O)N[C@@H](CCCNC(=N)N)C(=O)N[C@@H](CCCCN)C(=O)N1CCC[C@H]1C(=O)N[C@H](C(=O)N[C@H](C(=O)N[C@@H](CS)C(=O)N[C@@H](CCCNC(=N)N)C(=O)N[C@@H](CCCCN)C(=O)N1CCC[C@H]1C(=O)N[C@H](C(=O)N[C@H](C(N)=O)[C@@H](C)CC)[C@@H](C)CC)[C@@H](C)CC)[C@@H](C)CC)[C@@H](C)CC)[C@@H](C)CC)[C@@H](C)CC)[C@@H](C)CC)[C@@H](C)CC)[C@@H](C)CC)[C@@H](C)CC (H-IICRKPIICRKPIICRKPIICRKPIICRKPII-NH2) | > 128 | 40.3 | 40.3 | 40.3 | 4 (≈ 15.2 µg/mL) | 2 | 40.3 | 40.3 | 2 | > 90 | 8 (≈ 30.4 µg/mL) | 2 | > 64 | 40.3 | > 64 | 64 (≈ 243 µg/mL) | < 5 | 2 (≈ 7.6 µg/mL) | 2 | > 90 | selectivity ratio [17]: 2; MIC (Staphylococcus aureus [18]): > 64 µM; MIC (Escherichia coli [19]): 2 µM (≈ 7.6 µg/mL); MIC (Staphylococcus aureus [20]): > 64 µM; MIC (Salmonella typhimurium [21]): 4 µM (≈ 15.2 µg/mL); MIC [22]: 64 µM (≈ 243 µg/mL); MIC (Escherichia coli [23]): 2 µM (≈ 7.6 µg/mL); selectivity ratio [24]: 2
